Results taken from patent US20230107642A1 (Erasca, Inc., priority 2020, published 2023).

Target: T1, K-Ras G12C (Homo sapiens, UniProt P01116, G12C)
T1 construct: This protein contained 188 amino acids in total, including an N-terminal 6-Histidine tag; made in house; host or cells: E. coli BL21
Test: CAF assay (% CAF; method in Example 7, not in this part)
Format: binding
Details: 10 uM compound, 1 h incubation

Compound | % CAF @ 10 uM, 1h
C=CC(=O)N1C[C@H](C)N(c2nc(=O)n3c4c(c(-c5cc(F)c(F)cc5F)c(Cl)cc24)SC[C@@H]3CC2CCN(CC(F)F)CC2)C[C@H]1C [Example 476, (3S)-7-((2S,5R)-4-acryloyl-2,5-dimethylpiperazin-1-yl)-9-chloro-3-((1-(2,2-difluoroethyl)piperidin-4-yl)methyl)-10-(2,4,5-trifluorophenyl)-2H-[1,4]thiazino[2,3,4-ij]quinazolin-5(3H)-one] | 53.8%
C=CC(=O)N1C[C@H](C)N(c2nc(=O)n3c4c(c(-c5ccc(F)cc5F)c(Cl)cc24)SC[C@@H]3CC2CCN(CC(F)F)CC2)C[C@H]1C [Example 477, (3S)-7-((2S,5R)-4-acryloyl-2,5-dimethylpiperazin-1-yl)-9-chloro-3-((1-(2,2-difluoroethyl)piperidin-4-yl)methyl)-10-(2,4-difluorophenyl)-2H-[1,4]thiazino[2,3,4-ij]quinazolin-5(3H)-one] | 63.5%
C=CC(=O)N1C[C@H](C)N(c2nc(=O)n3c4c(c(-c5ccc(F)cc5F)c(Cl)cc24)SC[C@@H]3CC2CCN(C3CC3)CC2)C[C@H]1C [Example 478, (3S)-7-((2S,5R)-4-acryloyl-2,5-dimethylpiperazin-1-yl)-9-chloro-3-((1-cyclopropylpiperidin-4-yl)methyl)-10-(2,4-difluorophenyl)-2H-[1,4]thiazino[2,3,4-ij]quinazolin-5(3H)-one] | 70.7%
C=CC(=O)N1CCN(c2nc(=O)n3c4c(c(-c5ccc(F)cc5F)c(Cl)cc24)SC[C@H]3COCOC)[C@@H](C)C1 [Example 479, (3R)-7-((S)-4-acryloyl-2-methylpiperazin-1-yl)-9-chloro-10-(2,4-difluorophenyl)-3-((methoxymethoxy)methyl)-2H-[1,4]thiazino[2,3,4-ij]quinazolin-5(3H)-one] | 42%
C=CC(=O)N1CCN(c2nc(=O)n3c4c(c(-c5cc(F)c(F)cc5F)c(Cl)cc24)SC[C@@H]3CN2CCN(CC(F)F)CC2)[C@@H](C)C1 [Example 480, (3S)-7-((S)-4-acryloyl-2-methylpiperazin-1-yl)-9-chloro-3-((4-(2,2-difluoroethyl)piperazin-1-yl)methyl)-10-(2,4,5-trifluorophenyl)-2H-[1,4]thiazino[2,3,4-ij]quinazolin-5(3H)-one] | 61.2%
C=CC(=O)N1C[C@H](C)N(c2nc(=O)n3c4c(c(-c5ccc(F)cc5)c(C(F)(F)F)cc24)SC[C@@H]3CC2CN(CC(F)F)C2)C[C@H]1C [Example 481, (S)-7-((2S,5R)-4-acryloyl-2,5-dimethylpiperazin-1-yl)-3-((1-(2,2-difluoroethyl)azetidin-3-yl)methyl)-10-(4-fluorophenyl)-9-(trifluoromethyl)-2,3-dihydro-5H-[1,4]thiazino[2,3,4-ij]quinazolin-5-one] | 59.4%
C=CC(=O)N1C2CC(=O)CC1CN(c1nc(=O)n3c4c(c(-c5ccc(F)cc5F)c(C(F)(F)F)cc14)SCCC3)C2 [Example 486, 8-(9-acryloyl-7-oxo-3,9-diazabicyclo[3.3.1]nonan-3-yl)-11-(2,4-difluorophenyl)-10-(trifluoromethyl)-3,4-dihydro-2H,6H-[1,4]thiazepino[2,3,4-ij]quinazolin-6-one] | 95%
C=CC(=O)N1CCN(c2nc(=O)n3c4c(c(-c5ccc(F)cc5F)c(Cl)cc24)SC[C@@H](OC)C3)[C@@H](C)C1 [Example 487, (3S)-8-((S)-4-acryloyl-2-methylpiperazin-1-yl)-10-chloro-11-(2,4-difluorophenyl)-3-methoxy-3,4-dihydro-2H,6H-[1,4]thiazepino[2,3,4-ij]quinazolin-6-one] | 96%
C=CC(=O)N1CCN(c2nc(=O)n3c4c(c(-c5ccc(F)cc5F)c(Cl)cc24)SC[C@H](OC)C3)[C@@H](C)C1 [Example 488, (3R)-8-((S)-4-acryloyl-2-methylpiperazin-1-yl)-10-chloro-11-(2,4-difluorophenyl)-3-methoxy-3,4-dihydro-2H,6H-[1,4]thiazepino[2,3,4-ij]quinazolin-6-one] | 96%
